Organism: Rattus norvegicus
Experiment: DrugMatrix - Regimen: Daily Repeat
Type: toxicity, organism-based, Sprague-Dawley
Parameters: regimen Daily Repeat, gender Male, age 6-8 weeks
Conditions: in vivo, po, route oral GAVAGE, vehicle .5 % CMC; for ABSOLUTE BASOPHIL / ABSOLUTE EOSINOPHIL / ABSOLUTE LYMPHOCYTE / ABSOLUTE MONOCYTE / ABSOLUTE SEGMENTED NEUTROPHIL / BASOPHIL / EOSINOPHIL / ERYTHROCYTE COUNT / HEMATOCRIT / HEMOGLOBIN / LEUKOCYTE COUNT / LYMPHOCYTE / MEAN CORPUSCULAR HEMOGLOBIN / MEAN CORPUSCULAR HEMOGLOBIN CONCENTRATION / MEAN CORPUSCULAR VOLUME / MONOCYTE / NEUTROPHIL / NUCLEATED RED BLOOD CELLS / PLATELET COUNT: tissue Blood; for ALANINE AMINOTRANSFERASE / ALBUMIN / ALKALINE PHOSPHATASE / ASPARTATE AMINOTRANSFERASE / BLOOD UREA NITROGEN / CARBON DIOXIDE / CHLORIDE / CHOLESTEROL / CREATINE PHOSPHOKINASE / CREATININE / GLUCOSE / LACTATE DEHYDROGENASE / LIPASE / PHOSPHORUS / POTASSIUM / SODIUM / TOTAL BILIRUBIN / TOTAL PROTEIN / URIC ACID: tissue Plasma
[1] = 34 mg/kg, 72 h, dose level Low, time 3 day
[2] = 34 mg/kg, 120 h, dose level Low, time 5 day
[3] = 364 mg/kg, 72 h, dose level High, time 3 day
[4] = 364 mg/kg, 120 h, dose level High, time 5 day

Cc1cccc(Nc2cc(Cl)nc(SCC(=O)O)n2)c1C [PIRINIXIC ACID]
ABSOLUTE BASOPHIL [1]: 0 CELLS/uL
ABSOLUTE EOSINOPHIL [1]: 24.33 CELLS/uL
ABSOLUTE LYMPHOCYTE [1]: 9231.67 CELLS/uL
ABSOLUTE MONOCYTE [1]: 145 CELLS/uL
ABSOLUTE SEGMENTED NEUTROPHIL [1]: 1199 CELLS/uL
BASOPHIL [1]: 0%
EOSINOPHIL [1]: 0.33%
ERYTHROCYTE COUNT [1]: 5.01 x10E6/uL
HEMATOCRIT [1]: 31.77%
HEMOGLOBIN [1]: 11.67 G/DL
LEUKOCYTE COUNT [1]: 10.6 x10E3/uL
LYMPHOCYTE [1]: 85.67%
MEAN CORPUSCULAR HEMOGLOBIN [1]: 23.3 pg
MEAN CORPUSCULAR HEMOGLOBIN CONCENTRATION [1]: 36.7 G/DL
MEAN CORPUSCULAR VOLUME [1]: 63.5 fL
MONOCYTE [1]: 1.67%
NEUTROPHIL [1]: 12.33%
NUCLEATED RED BLOOD CELLS [1]: 0 /100WBC
PLATELET COUNT [1]: 1123.33 x10E3/uL
ALANINE AMINOTRANSFERASE [1]: 55.67 u/L
ALBUMIN [1]: 4.73 G/DL
ALKALINE PHOSPHATASE [1]: 457.33 u/L
ASPARTATE AMINOTRANSFERASE [1]: 87.33 u/L
BLOOD UREA NITROGEN [1]: 13.33 mg/dL
CARBON DIOXIDE [1]: 36.67 mmol/L
CHLORIDE [1]: 100.33 MEQ/L
CHOLESTEROL [1]: 52.67 mg/dL
CREATINE PHOSPHOKINASE [1]: 447.33 u/L
CREATININE [1]: 0.17 mg/dL
GLUCOSE [1]: 140 mg/dL
LACTATE DEHYDROGENASE [1]: 140 u/L
LIPASE [1]: 8 u/L
PHOSPHORUS [1]: 12.6 mg/dL
POTASSIUM [1]: 6.61 MEQ/L
SODIUM [1]: 143.77 MEQ/L
TOTAL BILIRUBIN [1]: 0.1 mg/dL
TOTAL PROTEIN [1]: 5.83 G/DL
URIC ACID [1]: 0.87 mg/dL
ABSOLUTE BASOPHIL [2]: 0 CELLS/uL
ABSOLUTE EOSINOPHIL [2]: 0 CELLS/uL
ABSOLUTE LYMPHOCYTE [2]: 7298 CELLS/uL
ABSOLUTE MONOCYTE [2]: 306 CELLS/uL
ABSOLUTE SEGMENTED NEUTROPHIL [2]: 1029.33 CELLS/uL
BASOPHIL [2]: 0%
EOSINOPHIL [2]: 0%
ERYTHROCYTE COUNT [2]: 5.39 x10E6/uL
HEMATOCRIT [2]: 34.73%
HEMOGLOBIN [2]: 13.23 G/DL
LEUKOCYTE COUNT [2]: 8.63 x10E3/uL
LYMPHOCYTE [2]: 84.33%
MEAN CORPUSCULAR HEMOGLOBIN [2]: 24.57 pg
MEAN CORPUSCULAR HEMOGLOBIN CONCENTRATION [2]: 38.13 G/DL
MEAN CORPUSCULAR VOLUME [2]: 64.5 fL
MONOCYTE [2]: 3.67%
NEUTROPHIL [2]: 12%
NUCLEATED RED BLOOD CELLS [2]: 0 /100WBC
PLATELET COUNT [2]: 1176.33 x10E3/uL
ALANINE AMINOTRANSFERASE [2]: 55 u/L
ALBUMIN [2]: 4.63 G/DL
ALKALINE PHOSPHATASE [2]: 445.33 u/L
ASPARTATE AMINOTRANSFERASE [2]: 92.67 u/L
BLOOD UREA NITROGEN [2]: 10 mg/dL
CARBON DIOXIDE [2]: 27.67 mmol/L
CHLORIDE [2]: 105 MEQ/L
CHOLESTEROL [2]: 39.67 mg/dL
CREATINE PHOSPHOKINASE [2]: 609.67 u/L
CREATININE [2]: 0.19 mg/dL
GLUCOSE [2]: 179 mg/dL
LACTATE DEHYDROGENASE [2]: 166.33 u/L
LIPASE [2]: 9.33 u/L
PHOSPHORUS [2]: 13.63 mg/dL
POTASSIUM [2]: 5.28 MEQ/L
SODIUM [2]: 147.67 MEQ/L
TOTAL BILIRUBIN [2]: 0.0333 mg/dL
TOTAL PROTEIN [2]: 6.17 G/DL
URIC ACID [2]: 1.6 mg/dL
ABSOLUTE BASOPHIL [3]: 0 CELLS/uL
ABSOLUTE EOSINOPHIL [3]: 0 CELLS/uL
ABSOLUTE LYMPHOCYTE [3]: 6159.33 CELLS/uL
ABSOLUTE MONOCYTE [3]: 64.67 CELLS/uL
ABSOLUTE SEGMENTED NEUTROPHIL [3]: 442.67 CELLS/uL
BASOPHIL [3]: 0%
EOSINOPHIL [3]: 0%
ERYTHROCYTE COUNT [3]: 5.12 x10E6/uL
HEMATOCRIT [3]: 32.3%
HEMOGLOBIN [3]: 11.83 G/DL
LEUKOCYTE COUNT [3]: 6.67 x10E3/uL
LYMPHOCYTE [3]: 92.33%
MEAN CORPUSCULAR HEMOGLOBIN [3]: 23.17 pg
MEAN CORPUSCULAR HEMOGLOBIN CONCENTRATION [3]: 36.63 G/DL
MEAN CORPUSCULAR VOLUME [3]: 63.17 fL
MONOCYTE [3]: 1%
NEUTROPHIL [3]: 6.67%
NUCLEATED RED BLOOD CELLS [3]: 0 /100WBC
PLATELET COUNT [3]: 1033.67 x10E3/uL
ALANINE AMINOTRANSFERASE [3]: 53.33 u/L
ALBUMIN [3]: 4.73 G/DL
ALKALINE PHOSPHATASE [3]: 564 u/L
ASPARTATE AMINOTRANSFERASE [3]: 87 u/L
BLOOD UREA NITROGEN [3]: 12.67 mg/dL
CARBON DIOXIDE [3]: 35.33 mmol/L
CHLORIDE [3]: 102.33 MEQ/L
CHOLESTEROL [3]: 49.67 mg/dL
CREATINE PHOSPHOKINASE [3]: 282.33 u/L
CREATININE [3]: 0.2 mg/dL
GLUCOSE [3]: 142.33 mg/dL
LACTATE DEHYDROGENASE [3]: 143.67 u/L
LIPASE [3]: 8.67 u/L
PHOSPHORUS [3]: 12.8 mg/dL
POTASSIUM [3]: 6.58 MEQ/L
SODIUM [3]: 147.03 MEQ/L
TOTAL BILIRUBIN [3]: 0.1 mg/dL
TOTAL PROTEIN [3]: 5.67 G/DL
URIC ACID [3]: 1 mg/dL
ABSOLUTE BASOPHIL [4]: 0 CELLS/uL
ABSOLUTE EOSINOPHIL [4]: 0 CELLS/uL
ABSOLUTE LYMPHOCYTE [4]: 6969 CELLS/uL
ABSOLUTE MONOCYTE [4]: 193.33 CELLS/uL
ABSOLUTE SEGMENTED NEUTROPHIL [4]: 904.33 CELLS/uL
BASOPHIL [4]: 0%
EOSINOPHIL [4]: 0%
ERYTHROCYTE COUNT [4]: 5.24 x10E6/uL
HEMATOCRIT [4]: 32.1%
HEMOGLOBIN [4]: 12.47 G/DL
LEUKOCYTE COUNT [4]: 8.07 x10E3/uL
LYMPHOCYTE [4]: 87.33%
MEAN CORPUSCULAR HEMOGLOBIN [4]: 23.8 pg
MEAN CORPUSCULAR HEMOGLOBIN CONCENTRATION [4]: 38.8 G/DL
MEAN CORPUSCULAR VOLUME [4]: 61.27 fL
MONOCYTE [4]: 2.33%
NEUTROPHIL [4]: 10.33%
NUCLEATED RED BLOOD CELLS [4]: 0 /100WBC
PLATELET COUNT [4]: 1189 x10E3/uL
ALANINE AMINOTRANSFERASE [4]: 57 u/L
ALBUMIN [4]: 5 G/DL
ALKALINE PHOSPHATASE [4]: 591 u/L
ASPARTATE AMINOTRANSFERASE [4]: 173 u/L
BLOOD UREA NITROGEN [4]: 15.33 mg/dL
CARBON DIOXIDE [4]: 35 mmol/L
CHLORIDE [4]: 101.67 MEQ/L
CHOLESTEROL [4]: 56.67 mg/dL
CREATINE PHOSPHOKINASE [4]: 895.67 u/L
CREATININE [4]: 0.17 mg/dL
GLUCOSE [4]: 139.67 mg/dL
LACTATE DEHYDROGENASE [4]: 272.67 u/L
LIPASE [4]: 9 u/L
PHOSPHORUS [4]: 11.73 mg/dL
POTASSIUM [4]: 6.36 MEQ/L
SODIUM [4]: 146.87 MEQ/L
TOTAL BILIRUBIN [4]: 0.0667 mg/dL
TOTAL PROTEIN [4]: 6.1 G/DL
URIC ACID [4]: 1.1 mg/dL

From ChEMBL document CHEMBL3885881, “DrugMatrix”
